Results published in US20230220206A1, “REJUVENATING AGENTS FOR ASPHALT RECYCLING” (BASF SE, priority 2020, published 2023).

How the values were obtained:
[1] = TD NMR relaxation time measurements (SE-CPMG, multicomponent fitting); type: physicochemical; settings: for 1/<1/T2e>: harmonic average relaxation time of the mobile components
Description: TD NMR, also known as NMR relaxometry, is a known NMR technique and relies on measuring the relaxation times of the nuclear spin system instead of frequency-domain spectra. […] Also, sample preparation is much simpler as there are no concerns about sample homogeneity and no solvents are needed.
Like that, a clear distinction between protons in a solid, amorphous and liquid component can be made with good accuracy.
Bitumen 20/30 was rejuvenated with some of the here claimed rejuvenating agents according to example 1. The pure bitumen 20/30 as well as the rejuvenated bitumen 20/30 samples were then analyzed by TD NMR. To do so, all samples were heated up to 80° C. to allow filling of the samples into NMR tubes. After that, TD NMR measurements at 30° C., 80° C. and 140° C. were conducted using the SE-CMPG sequence. This sequence consists of a solid echo combined with a so-called CPMG (Carr-Purcell-Meiboom-Gill) train of subsequent spin echoes with alternating phase and is capable of recording the decay of coherence in the transverse nuclear magnetization over about 5 orders of magnitude in time. Depending on the measurement temperature, the experimental data were then fitted with semi-empirically selected multicomponent models involving several Gaussian and exponential components:
S(t)=[pg1 exp(−(t/T2g1)^2)+pg2 exp(−(t/T2g2)^2)]+pe1 exp(−t/T2e1)[pe2 exp(−t/T2e2)+pe3 exp(−t/T2e3)]
In order to assess the effect of temperature on the molecular mobility of the bitumen, experiments were conducted at temperatures of 30° C., 80° C. and 140° C., and the following models turned out to provide adequate fits of the respective normalized signal decay curves: • two Gaussians and one exponential at 30° C., • two Gaussians and two exponentials at 80° C., • three exponentials at 140° C.
From the fitting, different values can be obtained: • The p values (pg1, pg2, pe1, pe2 and pe3), indicating the signal fraction of the individual component scaled in the range from 0 to 1 • The T2 values (T2g1, T2g2, T2e1, T2e2 and T2e3), indicating the relaxation times that correspond to each of the individual components. The longer the relaxation time, the higher the molecular mobility of the respective component • In addition to the values T2e1, T2e2 and T2e3, we also calculated the average relaxation time of the mobile components, 1/<1/T2e>, for the temperatures at which more than one mobile component exist (80 and 140° C.). 1/<1/T2e> Is calculated as the harmonic average of the relaxation times involved:
[formula] • The type of the component, those being: • g1: the rigid component • g2: the partially mobile component • e1, e2 and e3: mobile components with increasingly high local molecular mobilities
It is believed that the rigid component g1 is directly correlated with the amount of the asphaltene aggregates. The mobile component(s) on the other hand can be attributed to the maltene phase.

[2] = MSCR elastic recovery of rejuvenated polymer-modified bitumen; type: physicochemical; settings: Olexobit 45 + 5% compound
[3] = 30° C., bitumen 20/30 + additive
[4] = 80° C., bitumen 20/30 + additive
[5] = 140° C., bitumen 20/30 + additive

Question: With Polypropylenglycol bis glycidylether as the substance, how does the “T2e1” value [1, 3] read?
Answer: The value was 0.20 ms.

Question: What about the “T2g1” value [1, 3] of the same substance?
Answer: The value was 0.016 ms.

Question: And the “T2g2” value [1, 3]?
Answer: The value was 0.044 ms.

Question: And the pe1 ([1]; 30° C., mobile component, bitumen 20/30 + additive)?
Answer: Its pe1 is 0.41.

Question: And the pg2 ([1]; 30° C., partially mobile component, bitumen 20/30 + additive)?
Answer: The pg2 was 0.18.

Question: What about the pg1 ([1]; 30° C., signal fraction of rigid component, bitumen 20/30 + additive) of the same substance?
Answer: The pg1 was 0.40.

Question: And the “T2e1” value [1, 4]?
Answer: Its value is 0.47 ms.

Question: And the “T2e2” value [1, 4]?
Answer: Its value is 2.42 ms.

Question: And the “T2g1” value [1, 4]?
Answer: Its value is 0.017 ms.

Question: What about the “T2g2” value [1, 4] of the same substance?
Answer: The value was 0.053 ms.

Question: And the pe1 [1, 4]?
Answer: The pe1 was 0.46.

Question: And the pe2 [1, 4]?
Answer: The pe2 was 0.35.

Question: What about the pg1 [1, 4] of the same substance?
Answer: Its pg1 is 0.10.

Question: And the pg2 [1, 4]?
Answer: Its pg2 is 0.078.

Question: And the “1/<1/T2e>” value ([1]; 80° C.)?
Answer: Its value is 0.72 ms.

Question: And the “T2e1” value [1, 5]?
Answer: The value was 0.20 ms.

Question: What about the “T2e2” value [1, 5] of the same substance?
Answer: The value was 4.45 ms.

Question: And the “T2e3” value [1, 5]?
Answer: The value was 24.51 ms.

Question: What about the pe1 [1, 5] of the same substance?
Answer: The pe1 was 0.18.

Question: And the pe2 [1, 5]?
Answer: The pe2 was 0.47.

Question: What about the pe3 [1, 5] of the same substance?
Answer: Its pe3 is 0.34.

Question: What about the “1/<1/T2e>” value ([1]; 140° C.) of the same substance?
Answer: The value was 0.94 ms.

Question: What about the “MSCR % Rec. (0.1 kPa)” value ([2]; 0.1 kPa) of the same substance?
Answer: Its value is 15%.

Question: And the “MSCR % Rec. (1.6 kPa)” value ([2]; 1.6 kPa)?
Answer: Its value is 4%.

Question: And the “MSCR % Rec. (3.2 kPa)” value ([2]; 3.2 kPa)?
Answer: The value was 1%.
